Results taken from patent US12691095B2, “Modulators of TNF-alpha activity” (Forward Therapeutics, Inc., priority 2024, dated 2026).

What was measured:
[1] = molecular target: T1, TNF-α (Homo sapiens, UniProt P01375); assay: TNF-α Induced HEK Blue Cellular Assay; assay type: cell-based; details: HEK Blue TNFα reporter cells stimulated with TNF-α, 24 hrs, secreted alkaline phosphatase (QUANTI-Blue, 620 nm)
T1 construct: purchased R&D 210-TA-020/CF
Procedure: (§1) Test articles were diluted in DMSO and serially diluted into 384 well assay plate (Corning 3765), at final concentrations ranging from […] to 0.5 nM. HEK Blue™ TNFα reporter cells were added at a final density of 10,000 cell per well in assay media [DMEM (Gibco, cat #21063-029), 10% fetal bovine serum (ExcelBio, cat #FND500), 1% Penicillin-Streptomycin (Solarbio, cat #P1400-100]. TNF-α (R&D 210-TA-020/CF) was then added to the assay plate at a final concentration of […]. This plate was then incubated for 24 hrs at 37° C. and 5% CO2. Secreted alkaline phosphatase expression was then measured using QUANTI- Blue™ (Invivogen), according to manufacturer instructions and read on an Envision microplate reader at 620 nm.
(§2) Inhibition data for test compound over a range of concentration was plotted as percentage inhibition of the test compound (100%=maximum inhibition). IC50 values were determined after correcting for background [(sample read-mean of low control)/(mean of high control-mean of low control)] where by the low control is DMSO without stimulation and high control is DMSO with stimulation. The IC50 is defined as the concentration of test compound which produces 50% inhibition and was quantified using the 4 parameter logistic equation to fit the data.

[2] = molecular target: T1, TNF-α; assay: TNF-α Induced THP 1 dual Cellular Assay; assay type: cell-based; details: THP1 dual cell reporter cells stimulated with TNF-α, 24 hrs, secreted alkaline phosphatase (QUANTI-Blue, 620 nm)
Procedure: as §1, with “THP1 dual cell” for “HEK Blue™ TNFα”, “QUANTI-Blue™” for “QUANTI- Blue™”
as §2, with “whereby” for “where by”, “4-parameter” for “4 parameter”

T1 sequence (P01375 77-233 limits assumed): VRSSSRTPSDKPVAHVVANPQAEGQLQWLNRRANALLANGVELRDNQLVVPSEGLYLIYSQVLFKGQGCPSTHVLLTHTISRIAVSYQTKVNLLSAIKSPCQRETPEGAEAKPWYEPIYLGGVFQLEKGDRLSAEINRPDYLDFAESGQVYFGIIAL

IC50 [1] [nM] | IC50 [2] [nM] | SMILES
≤ 100 | – | [2H]C([2H])([2H])N1C(=O)c2c(C)ccc(Cl)c2[C@H]2C[C@@H]1c1nc3ccc(-c4ccc(P(C)(C)=O)nc4)cc3n12 [Example 6, (7R,14R)-1-chloro-11-(6-(dimethylphosphoryl)pyridin-3-yl)-4-methyl-6-(methyl-d3)-6,7-dihydro-7,14-methanobenzo[f]benzo[4,5]imidazo[1,2-a][1,4]diazocin-5(14H)-one]
≤ 100 | – | [2H]C([2H])([2H])N1C(=O)c2cccc(Cl)c2[C@H]2C[C@@H]1c1nc3ccc(-c4ccc(P(C)(C)=O)cc4)cc3n12 [Example 7, (7R,14R)-1-chloro-11-(4-(dimethylphosphoryl)phenyl)-6-(methyl-d3)-6,7-dihydro-7,14-methanobenzo[f]benzo[4,5]imidazo[1,2-a][1,4]diazocin-5(14H)-one]
≤ 100 | – | [2H]C([2H])([2H])N1C(=O)c2cccc(Cl)c2[C@H]2C[C@@H]1c1nc3ccc(-c4ccc(P(C)(C)=O)cc4F)cc3n12 [Example 8, (7R,14R)-1-chloro-11-(4-(dimethylphosphoryl)-2-fluorophenyl)-6-(methyl-d3)-6,7-dihydro-7,14-methanobenzo[f]benzo[4,5]imidazo[1,2-a][1,4]diazocin-5(14H)-one]
≤ 100 | – | [2H]C([2H])([2H])N1C(=O)c2cccc(F)c2[C@H]2C[C@@H]1c1nc3ccc(-c4ccc(P(C)(C)=O)c(F)c4)cc3n12 [Example 9, (7R,14R)-11-(4-(dimethylphosphoryl)-3-fluorophenyl)-1-fluoro-6-(methyl-d3)-6,7-dihydro-7,14-methanobenzo[f]benzo[4,5]imidazo[1,2-a][1,4]diazocin-5(14H)-one]
≤ 100 | – | [2H]C([2H])([2H])C([2H])([2H])N1C(=O)c2cccc(Cl)c2[C@H]2C[C@@H]1c1nc3ccc(-c4ccc(P(C)(C)=O)c(F)c4)cc3n12 [Example 10, (7R,14R)-1-chloro-11-(4-(dimethylphosphoryl)-3-fluorophenyl)-6-(ethyl-d5)-6,7-dihydro-7,14-methanobenzo[f]benzo[4,5]imidazo[1,2-a][1,4]diazocin-5(14H)-one]
≤ 100 | – | CCN1C(=O)c2cccc(Cl)c2[C@H]2C[C@@H]1c1nc3ccc(-c4ccc(P(C)(C)=O)c(F)c4)cc3n12 [Example 11, (7R,14R)-1-chloro-11-(4-(dimethylphosphoryl)-3-fluorophenyl)-6-ethyl-6,7-dihydro-7,14-methanobenzo[f]benzo[4,5]imidazo[1,2-a][1,4]diazocin-5(14H)-one]
≤ 100 | ≤ 100 | [2H]C([2H])([2H])N1C(=O)c2cccc(F)c2[C@H]2C[C@@H]1c1nc3ccc(-c4cc(F)c(P(C)(C)=O)cc4F)cc3n12 [Example 12, (7R,14R)-11-(4-(dimethylphosphoryl)-2,5-difluorophenyl)-1-fluoro-6-(methyl-d3)-6,7-dihydro-7,14-methanobenzo[f]benzo[4,5]imidazo[1,2-a][1,4]diazocin-5(14H)-one]
